Literature values, collected in PMC8583936, “Machine Learning Assisted Approach for Finding Novel High Activity Agonists of Human Ectopic Olfactory Receptors” (International Journal of Molecular Sciences, 2021).
Counter-ions that a name gives are not always drawn. Like-named read-outs stand apart in the source and are kept apart here.

Experiments:
OR1A1 = biological target: T1, OR1A1 (Homo sapiens, UniProt Q9P1Q5); settings: cited from earlier work
T1 sequence (Q9P1Q5 1-309): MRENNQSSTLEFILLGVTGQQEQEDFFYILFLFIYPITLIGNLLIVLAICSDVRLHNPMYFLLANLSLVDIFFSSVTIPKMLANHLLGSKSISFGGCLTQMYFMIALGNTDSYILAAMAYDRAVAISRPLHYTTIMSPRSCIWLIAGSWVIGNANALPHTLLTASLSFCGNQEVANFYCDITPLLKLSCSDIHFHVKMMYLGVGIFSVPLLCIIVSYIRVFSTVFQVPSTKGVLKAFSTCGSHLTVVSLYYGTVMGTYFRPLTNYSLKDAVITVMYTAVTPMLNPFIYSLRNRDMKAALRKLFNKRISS

OR2W1 = biological target: T2, OR2W1 (Homo sapiens, UniProt Q9Y3N9); settings: cited from earlier work
T2 sequence (Q9Y3N9 1-320): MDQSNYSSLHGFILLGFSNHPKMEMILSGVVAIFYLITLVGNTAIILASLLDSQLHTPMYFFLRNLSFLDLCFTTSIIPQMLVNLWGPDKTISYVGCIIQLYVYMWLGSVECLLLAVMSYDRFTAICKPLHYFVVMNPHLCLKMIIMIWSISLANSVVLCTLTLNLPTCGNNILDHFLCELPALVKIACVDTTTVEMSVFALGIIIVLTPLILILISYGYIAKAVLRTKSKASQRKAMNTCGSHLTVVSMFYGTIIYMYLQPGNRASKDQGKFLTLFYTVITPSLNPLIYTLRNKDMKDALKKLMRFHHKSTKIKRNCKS

[1] = Table S1, ref Supplement references [1]-[9] as printed after each odorant name
[2] = Table S2, ref Supplement references [2]-[12] as printed after each odorant name

C[C@@]12C=CC[C@H]1[C@@H]1CCC3=CC(=O)CC[C@]3(C)[C@H]1CC2 [Androstadienone]
Class (agonist / non-agonist / conflicting info.) for OR1A1 (OR1A1): Agonist
Class (agonist / non-agonist / antagonist / conflicting info.) for OR2W1 (OR2W1): Antagonist

C[C@]12CCC(=O)C[C@@H]1CC[C@@H]1[C@@H]2CC[C@]2(C)C=CC[C@@H]12 [Androstenone]
Class (agonist / non-agonist / conflicting info.) for OR1A1 (OR1A1): Conflicting info.
Class (agonist / non-agonist / antagonist / conflicting info.) for OR2W1 (OR2W1): Antagonist

COc1ccc(C=O)cc1 [Anisaldehyde]
Class (agonist / non-agonist / conflicting info.) for OR1A1 (OR1A1; [1]): Non-agonist
Class (agonist / non-agonist / antagonist / conflicting info.) for OR2W1 (OR2W1; [2]): Non-agonist

c1ccccc1 [Benzene]
Class (agonist / non-agonist / conflicting info.) for OR1A1 (OR1A1; [1]): Conflicting info.
Class (agonist / non-agonist / antagonist / conflicting info.) for OR2W1 (OR2W1; [2]): Non-agonist

CC(=O)OCc1ccccc1 [Benzyl acetate]
Class (agonist / non-agonist / conflicting info.) for OR1A1 (OR1A1; [1]): Agonist
Class (agonist / non-agonist / antagonist / conflicting info.) for OR2W1 (OR2W1; [2]): Agonist

C/C=C/C(=O)C1=C(C)CCCC1(C)C [Beta-damascone]
Class (agonist / non-agonist / conflicting info.) for OR1A1 (OR1A1; [1]): Conflicting info.
Class (agonist / non-agonist / antagonist / conflicting info.) for OR2W1 (OR2W1; [2]): Non-agonist

CSCSC [Bis(methylthio)methane]
Class (agonist / non-agonist / conflicting info.) for OR1A1 (OR1A1): Non-agonist
Class (agonist / non-agonist / antagonist / conflicting info.) for OR2W1 (OR2W1): Non-agonist

CCCC=O [Butanal]
Class (agonist / non-agonist / conflicting info.) for OR1A1 (OR1A1; [1]): Non-agonist
Class (agonist / non-agonist / antagonist / conflicting info.) for OR2W1 (OR2W1; [2]): Non-agonist

CCCCOC(C)=O [Butyl acetate]
Class (agonist / non-agonist / conflicting info.) for OR1A1 (OR1A1; [1]): Non-agonist
Class (agonist / non-agonist / antagonist / conflicting info.) for OR2W1 (OR2W1; [2]): Non-agonist

CCCCOC(=O)c1ccccc1N [Butyl anthranilate]
Class (agonist / non-agonist / conflicting info.) for OR1A1 (OR1A1): Agonist
Class (agonist / non-agonist / antagonist / conflicting info.) for OR2W1 (OR2W1): Agonist

CCCCOC(=O)C(C)OC(=O)CCC (centres unmarked) [Butyl butyryl lactate]
Class (agonist / non-agonist / conflicting info.) for OR1A1 (OR1A1; [1]): Non-agonist
Class (agonist / non-agonist / antagonist / conflicting info.) for OR2W1 (OR2W1; [2]): Non-agonist

CCCCOC=O [Butyl formate]
Class (agonist / non-agonist / conflicting info.) for OR1A1 (OR1A1; [1]): Conflicting info.
Class (agonist / non-agonist / antagonist / conflicting info.) for OR2W1 (OR2W1; [2]): Conflicting info.

CCCCCCC(=O)OCCCC [Butyl heptanoate]
Class (agonist / non-agonist / conflicting info.) for OR1A1 (OR1A1; [1]): Non-agonist
Class (agonist / non-agonist / antagonist / conflicting info.) for OR2W1 (OR2W1; [2]): Non-agonist

CCCC(=O)O [Butyric acid]
Class (agonist / non-agonist / conflicting info.) for OR1A1 (OR1A1; [1]): Conflicting info.
Class (agonist / non-agonist / antagonist / conflicting info.) for OR2W1 (OR2W1; [2]): Conflicting info.

O=C/C=C/c1ccccc1 [Cinnamaldehyde]
Class (agonist / non-agonist / conflicting info.) for OR1A1 (OR1A1; [1]): Agonist
Class (agonist / non-agonist / antagonist / conflicting info.) for OR2W1 (OR2W1; [2]): Non-agonist

CC(=O)OC/C=C/c1ccccc1 [Cinnamyl acetate]
Class (agonist / non-agonist / conflicting info.) for OR1A1 (OR1A1; [1]): Non-agonist
Class (agonist / non-agonist / antagonist / conflicting info.) for OR2W1 (OR2W1; [2]): Agonist

OCC=Cc1ccccc1 [Cinnamyl alcohol]
Class (agonist / non-agonist / conflicting info.) for OR1A1 (OR1A1; [1]): Non-agonist
Class (agonist / non-agonist / antagonist / conflicting info.) for OR2W1 (OR2W1; [2]): Non-agonist

CC/C=C\CCO [Cis-3-hexen-1-ol]
Class (agonist / non-agonist / conflicting info.) for OR1A1 (OR1A1; [1]): Conflicting info.
Class (agonist / non-agonist / antagonist / conflicting info.) for OR2W1 (OR2W1; [2]): Conflicting info.

CC(C)=CCC/C(C)=C/C=O [Citral]
Class (agonist / non-agonist / conflicting info.) for OR1A1 (OR1A1): Conflicting info.
Class (agonist / non-agonist / antagonist / conflicting info.) for OR2W1 (OR2W1): Conflicting info.

O=c1ccc2ccccc2o1 [Coumarin]
Class (agonist / non-agonist / conflicting info.) for OR1A1 (OR1A1; [1]): Non-agonist
Class (agonist / non-agonist / antagonist / conflicting info.) for OR2W1 (OR2W1; [2]): Conflicting info.

CC(C)c1ccc(C=O)cc1 [Cuminaldehyde]
Class (agonist / non-agonist / conflicting info.) for OR1A1 (OR1A1; [1]): Non-agonist
Class (agonist / non-agonist / antagonist / conflicting info.) for OR2W1 (OR2W1; [2]): Non-agonist

O=C1CCCCC1 [Cyclohexanone]
Class (agonist / non-agonist / conflicting info.) for OR1A1 (OR1A1; [1]): Non-agonist
Class (agonist / non-agonist / antagonist / conflicting info.) for OR2W1 (OR2W1; [2]): Non-agonist

C/C=C/C(=O)C1=C(C)C=CCC1(C)C [Damascenone]
Class (agonist / non-agonist / conflicting info.) for OR1A1 (OR1A1; [1]): Non-agonist
Class (agonist / non-agonist / antagonist / conflicting info.) for OR2W1 (OR2W1; [2]): Non-agonist

CCCCCCCCCC=O [Decanal]
Class (agonist / non-agonist / conflicting info.) for OR1A1 (OR1A1; [1]): Conflicting info.
Class (agonist / non-agonist / antagonist / conflicting info.) for OR2W1 (OR2W1; [2]): Non-agonist

CCCCCCCCCC(=O)O [Decanoic acid / capric acid]
Class (agonist / non-agonist / conflicting info.) for OR1A1 (OR1A1; [1]): Non-agonist
Class (agonist / non-agonist / antagonist / conflicting info.) for OR2W1 (OR2W1; Table S2, ref Supplement references [2]-[12] as printed after each odorant name, listed as Capric acid): Conflicting info.

CCCCCC1CCCC(=O)O1 (centres unmarked) [Delta-decalactone]
Class (agonist / non-agonist / conflicting info.) for OR1A1 (OR1A1; [1]): Non-agonist
Class (agonist / non-agonist / antagonist / conflicting info.) for OR2W1 (OR2W1; [2]): Non-agonist

CCCCCCCC1CCCC(=O)O1 (centres unmarked) [Delta-dodecalactone]
Class (agonist / non-agonist / conflicting info.) for OR1A1 (OR1A1; [1]): Non-agonist
Class (agonist / non-agonist / antagonist / conflicting info.) for OR2W1 (OR2W1; [2]): Non-agonist

CC(=O)C(C)=O [Diacetyl]
Class (agonist / non-agonist / conflicting info.) for OR1A1 (OR1A1; [1]): Non-agonist
Class (agonist / non-agonist / antagonist / conflicting info.) for OR2W1 (OR2W1; [2]): Non-agonist

CCCCCC1=C(C)CCC1=O [Dihydrojasmone]
Class (agonist / non-agonist / conflicting info.) for OR1A1 (OR1A1; [1]): Agonist
Class (agonist / non-agonist / antagonist / conflicting info.) for OR2W1 (OR2W1; [2]): Agonist

CC1(C)CC(=O)CC(=O)C1 [Dimedone]
Class (agonist / non-agonist / conflicting info.) for OR1A1 (OR1A1; [1]): Non-agonist
Class (agonist / non-agonist / antagonist / conflicting info.) for OR2W1 (OR2W1; [2]): Non-agonist

CSSC [Dimethyl disulfide]
Class (agonist / non-agonist / conflicting info.) for OR1A1 (OR1A1): Conflicting info.
Class (agonist / non-agonist / antagonist / conflicting info.) for OR2W1 (OR2W1): Non-agonist

CSC [Dimethyl sulfide]
Class (agonist / non-agonist / conflicting info.) for OR1A1 (OR1A1; [1]): Non-agonist
Class (agonist / non-agonist / antagonist / conflicting info.) for OR2W1 (OR2W1; [2]): Non-agonist

CSSSC [Dimethyl trisulfide]
Class (agonist / non-agonist / conflicting info.) for OR1A1 (OR1A1; [1]): Non-agonist
Class (agonist / non-agonist / antagonist / conflicting info.) for OR2W1 (OR2W1; [2]): Non-agonist

CCCSSSCCC [Dipropyl trisulfide]
Class (agonist / non-agonist / conflicting info.) for OR1A1 (OR1A1; [1]): Non-agonist
Class (agonist / non-agonist / antagonist / conflicting info.) for OR2W1 (OR2W1; [2]): Non-agonist

CCCCC/C=C/C=C/C=O [E,E-2,4-decadienal]
Class (agonist / non-agonist / conflicting info.) for OR1A1 (OR1A1; [1]): Conflicting info.
Class (agonist / non-agonist / antagonist / conflicting info.) for OR2W1 (OR2W1; [2]): Non-agonist

CCCC/C=C/C=C/C=O [E,E-2,4-nonadienal]
Class (agonist / non-agonist / conflicting info.) for OR1A1 (OR1A1; [1]): Non-agonist
Class (agonist / non-agonist / antagonist / conflicting info.) for OR2W1 (OR2W1; [2]): Non-agonist

CC/C=C\CC/C=C/C=O [E,Z-2,6-nonadienal]
Class (agonist / non-agonist / conflicting info.) for OR1A1 (OR1A1; [1]): Non-agonist
Class (agonist / non-agonist / antagonist / conflicting info.) for OR2W1 (OR2W1; [2]): Non-agonist

C=CCc1ccc(OC)cc1 [Estragole]
Class (agonist / non-agonist / conflicting info.) for OR1A1 (OR1A1): Agonist
Class (agonist / non-agonist / antagonist / conflicting info.) for OR2W1 (OR2W1): Agonist

CCO [Ethanol]
Class (agonist / non-agonist / conflicting info.) for OR1A1 (OR1A1; [1]): Non-agonist
Class (agonist / non-agonist / antagonist / conflicting info.) for OR2W1 (OR2W1; [2]): Non-agonist

CCOC(=O)C(C)CC (centres unmarked) [Ethyl 2-methylbutyrate]
Class (agonist / non-agonist / conflicting info.) for OR1A1 (OR1A1; [1]): Non-agonist
Class (agonist / non-agonist / antagonist / conflicting info.) for OR2W1 (OR2W1; [2]): Non-agonist

CCCC(O)CC(=O)OCC (centres unmarked) [Ethyl 3-hydroxyhexanoate]
Class (agonist / non-agonist / conflicting info.) for OR1A1 (OR1A1; [1]): Non-agonist
Class (agonist / non-agonist / antagonist / conflicting info.) for OR2W1 (OR2W1; [2]): Non-agonist

CCOC(=O)CCC(C)C [Ethyl 4-methylvalerate]
Class (agonist / non-agonist / conflicting info.) for OR1A1 (OR1A1; [1]): Non-agonist
Class (agonist / non-agonist / antagonist / conflicting info.) for OR2W1 (OR2W1; [2]): Non-agonist

CCOC(C)=O [Ethyl acetate]
Class (agonist / non-agonist / conflicting info.) for OR1A1 (OR1A1; [1]): Non-agonist
Class (agonist / non-agonist / antagonist / conflicting info.) for OR2W1 (OR2W1; [2]): Non-agonist

CCOC(=O)c1ccccc1 [Ethyl benzoate]
Class (agonist / non-agonist / conflicting info.) for OR1A1 (OR1A1): Non-agonist
Class (agonist / non-agonist / antagonist / conflicting info.) for OR2W1 (OR2W1): Non-agonist

CCCC(=O)OCC [Ethyl butyrate]
Class (agonist / non-agonist / conflicting info.) for OR1A1 (OR1A1; [1]): Non-agonist
Class (agonist / non-agonist / antagonist / conflicting info.) for OR2W1 (OR2W1; [2]): Non-agonist

CCOC(=O)/C=C/c1ccccc1 [Ethyl cinnamate]
Class (agonist / non-agonist / conflicting info.) for OR1A1 (OR1A1; [1]): Non-agonist
Class (agonist / non-agonist / antagonist / conflicting info.) for OR2W1 (OR2W1; [2]): Non-agonist
